We go through 25 molecules from patent publication US8785460B2, “Tricyclic compounds and use thereof” (Takeda Pharmaceutical Company Limited, priority 2008, dated 2014).

The structures appear in SMILES notation.

One data set deals with T1, human CRF1 receptor (Homo sapiens, UniProt P34998).
T1 construct: expressed in transfected cells; host or cells: CHO cells (membrane fraction)
T1 sequence (P34998 24-415): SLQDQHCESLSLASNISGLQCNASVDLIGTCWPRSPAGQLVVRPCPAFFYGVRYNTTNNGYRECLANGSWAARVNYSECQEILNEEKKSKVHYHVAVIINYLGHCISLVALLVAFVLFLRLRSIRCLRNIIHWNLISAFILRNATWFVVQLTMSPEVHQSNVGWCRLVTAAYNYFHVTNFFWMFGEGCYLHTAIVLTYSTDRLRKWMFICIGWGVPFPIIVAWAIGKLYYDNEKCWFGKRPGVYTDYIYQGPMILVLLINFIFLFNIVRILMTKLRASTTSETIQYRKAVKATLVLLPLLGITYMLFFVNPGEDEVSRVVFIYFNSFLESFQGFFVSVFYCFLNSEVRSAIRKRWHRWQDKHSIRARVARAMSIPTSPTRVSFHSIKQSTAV
Description: Measurement of CRF Binding Inhibitory Rate (receptor binding experiment with 125I-CRF). The settings on record: human CRF1 receptor expressing CHO cellular membrane fraction, 50 pM 125I-CRF, room temperature 1.5 hr, 0.05 nM to 10 μM of compound; read-out: IC50 values (CRF binding inhibition).

The term IC50 denotes the midpoint of a concentration-inhibition curve. The term melting point denotes the temperature, or range, at which the solid turns liquid. `CCC(CC)c1ccc(Cl)c2nc3n(c12)CCCCN3c1ncc(C(C)=O)cc1C` [Example 342, 1-{6-[10-Chloro-7-(1-ethylpropyl)-2,3,4,5-tetrahydro-1H-[1,3]diazepino[1,2-a]benzimidazol-1-yl]-5-methylpyridin-3-yl}ethanone] gave a melting point of 142 °C. Also, the IC50 at human CRF1 receptor is less than 1 µM.
In the same order, the values of `CCC(CC)(OC)c1ccc(Cl)c2nc3n(c12)CCCN3c1ccc(Cl)cc1Cl` [Example 110, 9-Chloro-1-(2,4-dichlorophenyl)-6-(1-ethyl-1-methoxypropyl)-1,2,3,4-tetrahydropyrimido[1,2-a]benzimidazole] are 124 to 125 °C and less than 1 µM.
In the same order, the values of `CCC(OC(C)=O)c1ccc(Cl)c2nc3n(c12)CCCN3c1cnc(N(C)C)cc1C` (centres unmarked) [Example 155, 1-{9-Chloro-1-[6-(dimethylamino)-4-methylpyridin-3-yl]-1,2,3,4-tetrahydropyrimido[1,2-a]benzimidazol-6-yl}propyl acetate] are 159 to 160 °C and less than 1 µM.
The like results for `CCC(O)c1ccc(Cl)c2nc3n(c12)CCCN3c1c(Br)cc(OC)cc1Br` (centres unmarked) [Example 397, 1-[9-Chloro-1-(2,6-dibromo-4-methoxyphenyl)-1,2,3,4-tetrahydropyrimido[1,2-a]benzimidazol-6-yl]propan-1-ol] were, in that order, 138 to 140 °C and less than 1 µM.
In turn, `OC(c1ccc(Cl)c2nc3n(c12)CCCN3c1ccc(Cl)cc1C(F)(F)F)C1CC1` (centres unmarked) [Example 132, {9-Chloro-1-[4-chloro-2-(trifluoromethyl)phenyl]-1,2,3,4-tetrahydropyrimido[1,2-a]benzimidazol-6-yl}(cyclopropyl)methanol] returned a melting point of 224 to 225 °C. At human CRF1 receptor, the IC50 is less than 1 µM.
In the same order, the values of `CCC(CO)c1ccc(Cl)c2nc3n(c12)CCCN3c1ccc(Cl)cc1Cl` (centres unmarked) [Example 147, 2-[9-Chloro-1-(2,4-dichlorophenyl)-1,2,3,4-tetrahydropyrimido[1,2-a]benzimidazol-6-yl]butan-1-ol] are 162 to 164 °C and less than 1 µM.
The molecule `CCC(CC)c1ccc(Cl)c2nc3n(c12)CCCCN3c1cccc2c1OC(F)(F)O2` [Example 54, 10-Chloro-1-(2,2-difluoro-1,3-benzodioxol-4-yl)-7-(1-ethylpropyl)-2,3,4,5-tetrahydro-1H-[1,3]diazepino[1,2-a]benzimidazole] gave a melting point of 156 to 158 °C. In addition, the IC50 at human CRF1 receptor is less than 1 µM.
Consider `CCC(NC(=O)CC(F)(F)F)c1ccc(Cl)c2nc3n(c12)CCCN3c1ccc(Cl)cc1Cl` (centres unmarked) [Example 447, N-{1-[9-Chloro-1-(2,4-dichlorophenyl)-1,2,3,4-tetrahydropyrimido[1,2-a]benzimidazol-6-yl]propyl}-3,3,3-trifluoropropanamide], for which the melting point is 285 to 290 °C. Moreover, the IC50 at human CRF1 receptor is less than 1 µM.
In the same order, the values of `CCN(CC)c1cccc2nc3n(c12)CCCCCN3c1ccc(Cl)cc1Cl` [Example 102, 1-(2,4-Dichlorophenyl)-N,N-diethyl-1,2,3,4,5,6-hexahydro[1,3]diazocino[1,2-a]benzimidazol-8-amine] are 120 to 121 °C and less than 1 µM.
The like results for `CCC(OC(C)=O)c1ccc(Cl)c2nc3n(c12)CCCN3c1ccc(OC)nc1C` (racemic) [Example 265, 1-[9-Chloro-1-(6-methoxy-2-methylpyridin-3-yl)-1,2,3,4-tetrahydropyrimido[1,2-a]benzimidazol-6-yl]propyl acetate] were, in that order, 157 to 159 °C and less than 1 µM.
The like results for `CCC(CC)c1ccc(Cl)c2nc3n(c12)CCN3c1ccc(C(N)=O)cc1Cl` [Example 15, 3-Chloro-4-[8-chloro-5-(1-ethylpropyl)-2,3-dihydro-1H-imidazo[1,2-a]benzimidazol-1-yl]benzamide] were, in that order, 225 to 229 °C and less than 1 µM.
In turn, `CCC(CC)c1ccc(Cl)c2nc3n(c12)CCCCN3c1cnc(N2CCCC2)cc1C` [Example 29, 10-Chloro-7-(1-ethylpropyl)-1-(4-methyl-6-pyrrolidin-1-ylpyridin-3-yl)-2,3,4,5-tetrahydro-1H-[1,3]diazepino[1,2-a]benzimidazole] registered a melting point of 160 to 161 °C. Also, the IC50 at human CRF1 receptor is less than 1 µM.
For the molecule `Cc1cc(C#N)ccc1N1CCCn2c1nc1c(Cl)ccc(C(OCC(F)(F)F)C3CC3)c12` (centres unmarked) [Example 402, 4-{9-Chloro-6-[cyclopropyl(2,2,2-trifluoroethoxy)methyl]-3,4-dihydropyrimido[1,2-a]benzimidazol-1(2H)-yl}-3-methylbenzonitrile], the melting point lay in the range of 207 to 209 °C. Also, the IC50 on human CRF1 receptor was less than 1 µM.
The like results for `CCC(CC)c1ccc(Cl)c2nc3n(c12)CCCCN3c1ccc(C(=O)NC)cc1C` [Example 49, 4-[10-Chloro-7-(1-ethylpropyl)-2,3,4,5-tetrahydro-1H-[1,3]diazepino[1,2-a]benzimidazol-1-yl]-N,3-dimethylbenzamide] were, in that order, 127 to 128 °C and less than 1 µM.
As for `Cc1nc(OC(F)F)nc(C)c1N1CCCn2c1nc1c(Cl)ccc(C(OC(F)F)C(F)(F)F)c12` (centres unmarked) [Example 216, 9-Chloro-1-[2-(difluoromethoxy)-4,6-dimethylpyrimidin-5-yl]-6-[1-(difluoromethoxy)-2,2,2-trifluoroethyl]-1,2,3,4-tetrahydropyrimido[1,2-a]benzimidazole], the melting point is 165 to 166 °C. The concentration for half-maximal inhibition (IC50) at human CRF1 receptor was less than 1 µM.
The like results for `CCCC(OC)c1ccc(Cl)c2nc3n(c12)CCCN3c1ccc(Cl)cc1Cl` (centres unmarked) [Example 118, 9-Chloro-1-(2,4-dichlorophenyl)-6-(1-methoxybutyl)-1,2,3,4-tetrahydropyrimido[1,2-a]benzimidazole] were, in that order, 139 to 140 °C and less than 1 µM.
The like results for `CCN(CC)c1cccc2nc3n(c12)C=CCCN3c1ccc(Cl)cc1Cl` [Example 362, 1-(2,4-Dichlorophenyl)-N,N-diethyl-2,3-dihydro-1H-[1,3]diazepino[1,2-a]benzimidazol-7-amine] were, in that order, 105 to 106 °C and less than 1 µM.
`CCC(OC(=O)CS(C)(=O)=O)c1ccc(Cl)c2nc3n(c12)CCCN3c1ccc(Cl)cc1Cl` (centres unmarked) [Example 433, 1-[9-Chloro-1-(2,4-dichlorophenyl)-1,2,3,4-tetrahydropyrimido[1,2-a]benzimidazol-6-yl]propyl (methylsulfonyl) acetate]: the melting point fell in the range of 187 to 189 °C. The IC50 on human CRF1 receptor was less than 1 µM.
In the same order, the values of `CCC(CC)c1ccc(Cl)c2nc3n(c12)CCCCN3c1ccc(C(N)=O)cc1C` [Example 48, 4-[10-Chloro-7-(1-ethylpropyl)-2,3,4,5-tetrahydro-1H-[1,3]diazepino[1,2-a]benzimidazol-1-yl]-3-methylbenzamide] are 185 to 186 °C and less than 1 µM.
`CCC(CC)c1ccc(Cl)c2nc3n(c12)CCCCN3c1ccc(C)cc1C#N` [Example 36, 2-[10-Chloro-7-(1-ethylpropyl)-2,3,4,5-tetrahydro-1H-[1,3]diazepino[1,2-a]benzimidazol-1-yl]-5-methylbenzonitrile]: the melting point lay in the range of 176 to 180 °C. For the same molecule, the IC50 on human CRF1 receptor is less than 1 µM.
In the same order, the values of `CS(=O)(=O)NC(c1ccc(Cl)c2nc3n(c12)CCCN3c1c(Cl)cc(Cl)cc1Cl)C(F)(F)F` (centres unmarked) [Example 416, N-{1-[9-Chloro-1-(2,4,6-trichlorophenyl)-1,2,3,4-tetrahydropyrimido[1,2-a]benzimidazol-6-yl]-2,2,2-trifluoroethyl}methanesulfonamide] are 290 to 291 °C and less than 1 µM.
In the same order, the values of `Cc1nc(C(C)C)nc(C)c1N1CCCn2c1nc1c(Cl)ccc(C(OC(F)F)C(F)(F)F)c12` (centres unmarked) [Example 214, 9-Chloro-6-[1-(difluoromethoxy)-2,2,2-trifluoroethyl]-1-[4,6-dimethyl-2-(1-methylethyl)pyrimidin-5-yl]-1,2,3,4-tetrahydropyrimido[1,2-a]benzimidazole] are 204 to 206 °C and less than 1 µM.
On to `CCC(NC(=O)C(F)F)c1ccc(Cl)c2nc3n(c12)CCCN3c1ccc(Cl)cc1Cl` (centres unmarked) [Example 463, N-{1-[9-Chloro-1-(2,4-dichlorophenyl)-1,2,3,4-tetrahydropyrimido[1,2-a]benzimidazol-6-yl]propyl}-2,2-difluoroacetamide], for which the melting point lay within 248 to 250 °C. Besides, the IC50 on human CRF1 receptor was less than 1 µM.
For `COc1ccc(N2CCCn3c2nc2c(Cl)ccc(C(OCC(F)(F)F)C4CC4)c23)c(C)n1` (centres unmarked) [Example 277, 9-Chloro-6-[cyclopropyl (2,2,2-trifluoroethoxy)methyl]1-(6-methoxy-2-methylpyridin-3-yl)-1,2,3,4-tetrahydropyrimido[1,2-a]benzimidazole], the melting point lay within 158 to 160 °C. On human CRF1 receptor, the IC50 was less than 1 µM.
In the same order, the values of `COc1ccc(C(O)(C2CC2)C2CC2)c2c1nc1n2CCCN1c1ccc(Cl)cc1Cl` [Example 369, Dicyclopropyl[1-(2,4-dichlorophenyl)-9-methoxy-1,2,3,4-tetrahydropyrimido[1,2-a]benzimidazol-6-yl]methanol] are 219 to 220 °C and less than 1 µM.
